The record followed here is patent US10479780B2, “Aminopyrazole derivatives” (Chugai Seiyaku Kabushiki Kaisha, priority 2015, dated 2019).

Assay type in all cases: biochemical
One test addresses T1, human Lck enzyme (Homo sapiens, UniProt P06239).
T1 construct: purchased Carna Biosciences, Inc. 08-170
Kind of test: Lck enzyme inhibitory activity (time-resolved fluorometry, biotinylated peptide phosphorylation). Conditions: read-out: LCK_IC50. A digest of the protocol:
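Readout pairs a europium cryptate-labelled anti-phosphotyrosine antibody with XL665-streptavidin, measured by time-resolved fluorescence. IC50 derived from percent inhibition against untreated controls.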

In another test the target is T2, human Src enzyme (Homo sapiens, UniProt P12931).
T2 construct: purchased Carna Biosciences, Inc. 08-173
T2 sequence (P12931 whole entry): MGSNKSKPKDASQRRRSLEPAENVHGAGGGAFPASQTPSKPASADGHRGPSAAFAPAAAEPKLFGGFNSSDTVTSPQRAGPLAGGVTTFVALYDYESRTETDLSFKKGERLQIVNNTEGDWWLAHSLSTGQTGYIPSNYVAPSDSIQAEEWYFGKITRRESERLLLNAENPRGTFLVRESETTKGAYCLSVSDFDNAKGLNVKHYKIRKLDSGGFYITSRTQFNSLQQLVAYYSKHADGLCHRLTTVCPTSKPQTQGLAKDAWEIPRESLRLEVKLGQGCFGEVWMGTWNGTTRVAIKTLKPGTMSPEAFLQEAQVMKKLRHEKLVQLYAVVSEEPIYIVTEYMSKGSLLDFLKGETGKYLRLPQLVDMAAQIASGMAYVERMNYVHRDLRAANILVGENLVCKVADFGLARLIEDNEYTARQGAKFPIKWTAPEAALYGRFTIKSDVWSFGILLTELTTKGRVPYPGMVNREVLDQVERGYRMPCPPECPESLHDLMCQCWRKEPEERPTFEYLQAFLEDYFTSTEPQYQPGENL
The test can be described thus: Src enzyme inhibitory activity (time-resolved fluorometry, biotinylated peptide phosphorylation). To be noted: read-out: SRC_IC50. In short, it runs like this: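 Compounds were tested for blocking tyrosine phosphorylation of a biotinylated peptide substrate by recombinant human Src. Phosphorylated product was quantified by time-resolved fluorometry using europium cryptate and XL665 conjugates, and IC50 was calculated against the compound-free control.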

For a further test, the target named is T3, human Yes1 enzyme (Homo sapiens, UniProt P07947).
T3 construct: made in house
T3 sequence (P07947 whole entry): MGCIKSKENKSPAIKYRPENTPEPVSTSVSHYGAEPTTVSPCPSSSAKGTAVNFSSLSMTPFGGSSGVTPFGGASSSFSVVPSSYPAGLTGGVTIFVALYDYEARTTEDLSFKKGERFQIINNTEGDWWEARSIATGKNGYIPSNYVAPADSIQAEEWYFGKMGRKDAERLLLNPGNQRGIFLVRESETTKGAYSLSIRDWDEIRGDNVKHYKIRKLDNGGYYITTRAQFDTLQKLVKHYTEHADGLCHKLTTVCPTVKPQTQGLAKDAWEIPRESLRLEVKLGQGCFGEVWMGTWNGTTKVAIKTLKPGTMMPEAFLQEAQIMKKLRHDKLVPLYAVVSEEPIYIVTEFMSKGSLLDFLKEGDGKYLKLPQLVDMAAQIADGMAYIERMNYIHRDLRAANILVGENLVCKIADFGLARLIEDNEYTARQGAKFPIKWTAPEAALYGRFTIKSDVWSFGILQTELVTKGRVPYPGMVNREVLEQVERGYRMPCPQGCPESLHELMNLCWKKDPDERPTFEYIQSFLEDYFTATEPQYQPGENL
The test can be described thus: Yes1 enzyme inhibitory activity (time-resolved fluorometry, biotinylated peptide phosphorylation). Conditions: read-out: YES_IC50. In short, it runs like this: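 Inhibition was expressed against a compound-free control to give IC50, using TR-FRET read-out (Eu-cryptate anti-pTyr antibody, streptavidin-XL665).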

[1] abbreviates: biotinylated peptide phosphorylation.

Like-named read-outs stand apart in the source and are kept apart here.

T1 sequence (P06239 whole entry): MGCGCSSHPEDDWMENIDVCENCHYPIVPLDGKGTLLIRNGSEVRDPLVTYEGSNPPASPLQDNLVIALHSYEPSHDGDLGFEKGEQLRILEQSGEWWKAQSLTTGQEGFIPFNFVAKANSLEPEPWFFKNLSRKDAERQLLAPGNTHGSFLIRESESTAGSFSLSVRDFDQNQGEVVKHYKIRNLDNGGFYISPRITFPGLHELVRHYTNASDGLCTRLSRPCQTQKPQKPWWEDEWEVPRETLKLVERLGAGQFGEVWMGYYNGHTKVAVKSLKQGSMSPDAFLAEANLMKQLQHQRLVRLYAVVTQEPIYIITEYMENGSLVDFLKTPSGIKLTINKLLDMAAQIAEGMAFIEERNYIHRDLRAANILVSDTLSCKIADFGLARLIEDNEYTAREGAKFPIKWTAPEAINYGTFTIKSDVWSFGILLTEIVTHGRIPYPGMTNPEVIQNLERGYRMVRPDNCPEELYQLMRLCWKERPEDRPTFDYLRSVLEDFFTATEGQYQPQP

As to `Cc1cccc(S(=O)(=O)Nc2cc3[nH]c(C(=O)c4cnn(-c5cnc(Oc6ccccc6F)cc5C)c4N)cc3cc2C)c1` [Example 5-1-462, N-[2-[5-amino-1-[6-(2-fluorophenoxy)-4-methylpyridin-3-yl]pyrazole-4-carbonyl]-5-methyl-1H-indol-6-yl]-3-methylbenzenesulfonamide], the IC50 on human Lck enzyme (setting [1]) is 260 nM; on human Src enzyme (setting [1]) it was 1000 nM; on human Yes1 enzyme (setting [1]), 6.1 nM.

Consider `Cc1cc2cc(C(=O)c3cnn(-c4ccc(Oc5ccccc5F)cc4C)c3N)[nH]c2cc1NS(=O)(=O)c1cccc(Cl)n1` [Example 5-1-525, N-[2-[5-amino-1-[4-(2-fluorophenoxy)-2-methylphenyl]pyrazole-4-carbonyl]-5-methyl-1H-indol-6-yl]-6-chloropyridine-2-sulfonamide], for which the IC50 was found to be 72 nM at human Lck enzyme (setting [1]), 400 nM at human Src enzyme (setting [1]) and 3.1 nM at human Yes1 enzyme (setting [1]).

Turning to `Cc1cc(Oc2c(F)cccc2F)ncc1-n1ncc(C(=O)c2cc3cc(OC(F)F)c(C4CCN(C(=O)OC(C)(C)C)CC4)cc3[nH]2)c1N` [Example 4-1-012, tert-butyl 4-[2-[5-amino-1-[6-(2,6-difluorophenoxy)-4-methylpyridin-3-yl]pyrazole-4-carbonyl]-5-(difluoromethoxy)-1H-indol-6-yl]piperidine-1-carboxylate], the IC50 came to 39 nM on human Lck enzyme (setting [1]), 90 nM at human Src enzyme (setting [1]) and 34 nM on human Yes1 enzyme (setting [1]).

Take `Cc1cc(Oc2c(F)cccc2F)ncc1-n1ncc(C(=O)c2cc3cc(OC4CCN(C(C)C)CC4)c(C4CCN(S(C)(=O)=O)CC4)cc3[nH]2)c1N` [Example 5-1-229, (5-amino-1-(6-(2,6-difluorophenoxy)-4-methylpyridin-3-yl)-1H-pyrazol-4-yl)(5-((1-isopropylpiperidin-4-yl)oxy)-6-(1-(methylsulfonyl)piperidin-4-yl)-1H-indol-2-yl)methanone]: the IC50 at human Lck enzyme is 2.4 nM; at human Src enzyme it was 6.1 nM; on human Yes1 enzyme, 0.77 nM.

As for `Cc1cc(Oc2ccccc2F)ccc1-n1ncc(C(=O)c2cc3cc(N4CCOCC4)c(NS(C)(=O)=O)cc3[nH]2)c1N` [Example 4-24-013, N-[2-[5-amino-1-[4-(2-fluorophenoxy)-2-methylphenyl]pyrazole-4-carbonyl]-5-morpholin-4-yl-1H-indol-6-yl]methanesulfonamide], the values for the IC50 at human Lck enzyme (setting [1]), on human Src enzyme (setting [1]) and on human Yes1 enzyme (setting [1]) were 12 nM, 40 nM and 1.6 nM, respectively.

Take `Cc1cc(Oc2ccccc2F)ccc1-n1ncc(C(=O)c2cc3cc(F)c(NS(=O)(=O)c4cc(F)cc(F)c4)cc3[nH]2)c1N` [Example 5-1-562, N-[2-[5-amino-1-[4-(2-fluorophenoxy)-2-methylphenyl]pyrazole-4-carbonyl]-5-fluoro-1H-indol-6-yl]-3,5-difluorobenzenesulfonamide]: the figures for the IC50 on human Lck enzyme (setting [1]), at human Src enzyme (setting [1]) and on human Yes1 enzyme (setting [1]) were 180 nM, 830 nM and 5.3 nM, respectively.

Consider `CC(C)N1CCC(c2cc3[nH]c(C(=O)c4cnn(-c5ccc(Oc6ccccc6F)cc5)c4N)cc3cc2F)CC1` [Example 5-1-007, [5-amino-1-[4-(2-fluorophenoxy)phenyl]pyrazol-4-yl]-[5-fluoro-6-(1-propan-2-ylpiperidin-4-yl)-1H-indol-2-yl]methanone], for which the IC50 stood at 2.2 nM at human Lck enzyme, 11 nM on human Src enzyme and 1.1 nM on human Yes1 enzyme.

As to `Cc1cc(Oc2ccccc2F)cc(F)c1-n1ncc(C(=O)c2cc3cc(OCC(F)F)c(N4CCN(S(C)(=O)=O)CC4)cc3[nH]2)c1N` [Example 4-23-006, [5-amino-1-[2-fluoro-4-(2-fluorophenoxy)-6-methylphenyl]pyrazol-4-yl]-[5-(2,2-difluoroethoxy)-6-(4-methylsulfonylpiperazin-1-yl)-1H-indol-2-yl]methanone], the IC50 on human Lck enzyme (setting [1]) came out at 13 nM; on human Src enzyme (setting [1]), 22 nM; on human Yes1 enzyme (setting [1]), 2.7 nM.

In the case of `COc1cc2cc(C(=O)c3cnn(-c4c(C)cc(Oc5ccccc5F)cc4F)c3N)[nH]c2cc1N1CCCS1(=O)=O` [Example 4-2-120, [5-amino-1-[2-fluoro-4-(2-fluorophenoxy)-6-methylphenyl]pyrazol-4-yl]-[6-(1,1-dioxo-1,2-thiazolidin-2-yl)-5-methoxy-1H-indol-2-yl]methanone], the values for the IC50 on human Lck enzyme (setting [1]), at human Src enzyme (setting [1]) and at human Yes1 enzyme (setting [1]) were 4 nM, 28 nM and 1 nM, respectively.

On to `Cc1cc2[nH]c(C(=O)c3cnn(-c4cnc(Oc5ccccc5F)cc4C)c3N)cc2cc1NS(C)(=O)=O` [Example 4-2-052, N-[2-[5-amino-1-[6-(2-fluorophenoxy)-4-methylpyridin-3-yl]pyrazole-4-carbonyl]-6-methyl-1H-indol-5-yl]methanesulfonamide], for which the results for the IC50 on human Lck enzyme (setting [1]), at human Src enzyme (setting [1]) and on human Yes1 enzyme (setting [1]) were 0.97 nM, 5.2 nM and 0.44 nM, respectively.

Regarding `Cc1cc(Oc2ccccc2Cl)nc(C)c1-n1ncc(C(=O)c2cc3cc(F)c(NS(C)(=O)=O)cc3[nH]2)c1N` [Example 5-1-051, N-[2-[5-amino-1-[6-(2-chlorophenoxy)-2,4-dimethylpyridin-3-yl]pyrazole-4-carbonyl]-5-fluoro-1H-indol-6-yl]methanesulfonamide], the figures for the IC50 on human Lck enzyme, on human Src enzyme and on human Yes1 enzyme were 82 nM, 320 nM and 60 nM, respectively.

On to `Cc1cc(Oc2cccc(F)c2F)ncc1-n1ncc(C(=O)c2cc3cc(NS(C)(=O)=O)c(F)cc3[nH]2)c1N` [Example 5-1-049, N-[2-[5-amino-1-[6-(2,3-difluorophenoxy)-4-methylpyridin-3-yl]pyrazole-4-carbonyl]-6-fluoro-1H-indol-5-yl]methanesulfonamide], for which the IC50 at human Lck enzyme turned out to be 3.9 nM; on human Src enzyme, 70 nM; at human Yes1 enzyme, 1.5 nM.

Take `COc1ccnc(S(=O)(=O)Nc2cc3[nH]c(C(=O)c4cnn(-c5cnc(Oc6ccccc6F)cc5C)c4N)cc3cc2C)c1` [Example 5-1-482, N-[2-[5-amino-1-[6-(2-fluorophenoxy)-4-methylpyridin-3-yl]pyrazole-4-carbonyl]-5-methyl-1H-indol-6-yl]-4-methoxypyridine-2-sulfonamide]: the values for the IC50 on human Lck enzyme (setting [1]), at human Src enzyme (setting [1]) and on human Yes1 enzyme (setting [1]) were 140 nM, 480 nM and 6.3 nM, respectively.

Consider `Cc1cc2cc(C(=O)c3cnn(-c4c(C)cc(Oc5ccccc5F)cc4F)c3N)[nH]c2cc1NS(C)(=O)=O` [Example 4-2-055, N-[2-[5-amino-1-[2-fluoro-4-(2-fluorophenoxy)-6-methylphenyl]pyrazole-4-carbonyl]-5-methyl-1H-indol-6-yl]methanesulfonamide], for which the IC50 was determined as 26 nM on human Lck enzyme (setting [1]), 65 nM on human Src enzyme (setting [1]) and 3 nM at human Yes1 enzyme (setting [1]).

As for `Cc1cc(-n2ncc(C(=O)c3cc4cc(OC5CCN(C6CCC6)CC5)c(F)cc4[nH]3)c2N)ccc1Oc1ccccc1F` [Example 5-1-234, [5-amino-1-[4-(2-fluorophenoxy)-3-methylphenyl]pyrazol-4-yl]-[5-(1-cyclobutylpiperidin-4-yl)oxy-6-fluoro-1H-indol-2-yl]methanone], the IC50 was 73 nM on human Lck enzyme, 490 nM on human Src enzyme and 3.2 nM on human Yes1 enzyme.

As to `Cc1cc(-n2ncc(C(=O)c3cc4cc(N5CCOCC5)c(N5CCOCC5)cc4[nH]3)c2N)ccc1Oc1ccccc1F` [Example 5-1-159, [5-amino-1-[4-(2-fluorophenoxy)-3-methylphenyl]pyrazol-4-yl]-(5,6-dimorpholin-4-yl-1H-indol-2-yl)methanone], the IC50 is 39 nM at human Lck enzyme, 96 nM on human Src enzyme and 1.4 nM at human Yes1 enzyme.
